Assay [1] deals with T1, D(2) dopamine receptor (Homo sapiens, UniProt P14416). The assay can be described thus: Agonist activity at D2L receptor in human HTLA cells assessed as beta arrestin recruitment at 6 uM after 18 hrs by luminescence assay. In kind it is functional, cell-based. In general terms: Activated receptors often draw arrestin, which recruitment assays turn into a signal.
Assay [2] has as its target T1, D(2) dopamine receptor. The experiment in a line: Agonist activity at human D2L receptor expressed in HEK293T cells coexpressing Gi subunit assessed as inhibition of isoproterenol-stimulated cAMP production by luminescence assay. The class given is functional, cell-based, HEK-293T.
Assay [3] deals with T1, D(2) dopamine receptor. The assay can be described thus: Displacement of [3H]N-methylspiperone from human D2L receptor expressed in CHO cells after 1.5 hrs by microbeta counting method. The class given is cell-based. A general note: In a radioligand displacement assay an active substance lowers the binding of a labelled ligand.
The target of assay [4] is T1, D(2) dopamine receptor. The following applies: HTLA, at 6 µM.
Description: Agonist activity at D2L receptor in human HTLA cells assessed as beta arrestin recruitment at 6 uM after 18 hrs by luminescence assay relative to Quinpirole
The target of assay [5] is T1, D(2) dopamine receptor. The experiment in a line: Partial agonist activity at D2L receptor in human HTLA cells assessed as beta arrestin recruitment at 6 uM after 18 hrs by luminescence assay. In kind it is functional, cell-based.
Assay [6] concerns the target T1, D(2) dopamine receptor. The settings on record: HTLA, 6 uM.
Description: Partial agonist activity at D2L receptor in human HTLA cells assessed as beta arrestin recruitment at 6 uM after 18 hrs by luminescence assay relative to Quinpirole
In assay [7] the test system is Mus musculus. The assay can be described thus: Antipsychotic-like activity in wild type mouse assessed as inhibition of PCP-induced hyperlocomotion at 2 mg/kg, ip administered 30 min prior to PCP challenge measured after 90 min. In kind it is functional, organism-based. On the set-up: dose 2 mg/kg.
Assay [8] deals with D(1B) dopamine receptor (Homo sapiens) (UniProt P21918). The assay can be described thus: Binding affinity to D5 receptor.
For assay [9], the system named is Mus musculus. The experiment in a line: Antipsychotic-like activity in beta- arrestin-2 knockout mouse assessed as inhibition of PCP-induced hyperlocomotion at 2 mg/kg, ip administered 30 min prior to PCP challenge measured after 90 min. The class given is functional, organism-based. On the set-up: dose 2 mg/kg.
In assay [10] the target is D(1A) dopamine receptor (Homo sapiens) (UniProt P21728). The assay can be described thus: Binding affinity to D1 receptor.
Assay [11] deals with T2, D(4) dopamine receptor (Homo sapiens) (UniProt P21917).
T2 sequence (whole entry): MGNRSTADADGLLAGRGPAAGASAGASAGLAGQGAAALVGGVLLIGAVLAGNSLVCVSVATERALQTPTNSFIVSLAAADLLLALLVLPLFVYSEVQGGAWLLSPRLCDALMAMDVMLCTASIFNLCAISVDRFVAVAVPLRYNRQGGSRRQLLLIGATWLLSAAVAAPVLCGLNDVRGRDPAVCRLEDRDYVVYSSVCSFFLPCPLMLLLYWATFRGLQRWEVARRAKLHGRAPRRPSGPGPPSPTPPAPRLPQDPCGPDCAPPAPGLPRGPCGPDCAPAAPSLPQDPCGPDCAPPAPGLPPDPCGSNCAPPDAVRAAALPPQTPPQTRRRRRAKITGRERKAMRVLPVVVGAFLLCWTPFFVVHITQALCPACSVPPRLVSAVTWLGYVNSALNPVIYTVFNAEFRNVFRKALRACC
The experiment in a line: Binding affinity to D4 receptor.

The target in assay [12] is D(3) dopamine receptor (Homo sapiens) (UniProt P35462). The experiment in a line: Binding affinity to D3 receptor.

Activity calls are given as the source filed them. No cut-off for these calls is given here.

T1 sequence (P14416 whole entry): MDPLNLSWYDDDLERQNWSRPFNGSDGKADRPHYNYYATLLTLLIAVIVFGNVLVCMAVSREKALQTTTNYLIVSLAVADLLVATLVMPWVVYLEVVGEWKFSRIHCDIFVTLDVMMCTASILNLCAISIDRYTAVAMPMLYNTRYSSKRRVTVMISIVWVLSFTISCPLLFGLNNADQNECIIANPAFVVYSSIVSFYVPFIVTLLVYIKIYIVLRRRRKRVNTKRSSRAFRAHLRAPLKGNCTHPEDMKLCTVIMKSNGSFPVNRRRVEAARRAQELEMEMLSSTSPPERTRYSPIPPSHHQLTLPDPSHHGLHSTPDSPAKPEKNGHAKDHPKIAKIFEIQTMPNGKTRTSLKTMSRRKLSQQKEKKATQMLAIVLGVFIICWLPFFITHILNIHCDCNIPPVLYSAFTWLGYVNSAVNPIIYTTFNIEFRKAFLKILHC
D(1B) dopamine receptor (Homo sapiens), sequence (P21918 whole entry): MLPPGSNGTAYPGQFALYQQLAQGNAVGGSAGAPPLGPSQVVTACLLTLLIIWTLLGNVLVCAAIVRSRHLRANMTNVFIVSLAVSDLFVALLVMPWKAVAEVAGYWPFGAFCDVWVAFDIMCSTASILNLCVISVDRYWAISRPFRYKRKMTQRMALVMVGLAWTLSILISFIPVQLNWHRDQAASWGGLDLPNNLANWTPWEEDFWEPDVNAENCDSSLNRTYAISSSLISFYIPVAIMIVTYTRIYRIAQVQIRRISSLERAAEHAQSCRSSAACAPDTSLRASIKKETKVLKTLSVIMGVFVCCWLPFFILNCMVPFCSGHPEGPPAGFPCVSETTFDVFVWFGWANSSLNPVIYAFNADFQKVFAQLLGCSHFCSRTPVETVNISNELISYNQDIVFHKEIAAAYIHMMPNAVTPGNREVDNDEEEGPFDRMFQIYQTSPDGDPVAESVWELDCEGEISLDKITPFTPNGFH
D(1A) dopamine receptor (Homo sapiens), sequence (P21728 whole entry): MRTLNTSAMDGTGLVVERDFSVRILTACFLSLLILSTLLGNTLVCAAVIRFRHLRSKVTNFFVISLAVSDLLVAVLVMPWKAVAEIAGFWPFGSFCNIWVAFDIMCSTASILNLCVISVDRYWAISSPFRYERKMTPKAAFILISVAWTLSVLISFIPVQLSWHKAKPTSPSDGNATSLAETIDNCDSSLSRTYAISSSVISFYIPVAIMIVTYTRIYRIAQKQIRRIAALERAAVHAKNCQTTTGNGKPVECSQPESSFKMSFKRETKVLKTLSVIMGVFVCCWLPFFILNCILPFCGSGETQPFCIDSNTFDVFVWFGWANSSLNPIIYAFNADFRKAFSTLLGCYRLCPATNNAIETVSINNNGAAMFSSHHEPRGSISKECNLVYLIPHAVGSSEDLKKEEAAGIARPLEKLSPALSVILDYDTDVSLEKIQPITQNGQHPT
D(3) dopamine receptor (Homo sapiens), sequence (P35462 whole entry): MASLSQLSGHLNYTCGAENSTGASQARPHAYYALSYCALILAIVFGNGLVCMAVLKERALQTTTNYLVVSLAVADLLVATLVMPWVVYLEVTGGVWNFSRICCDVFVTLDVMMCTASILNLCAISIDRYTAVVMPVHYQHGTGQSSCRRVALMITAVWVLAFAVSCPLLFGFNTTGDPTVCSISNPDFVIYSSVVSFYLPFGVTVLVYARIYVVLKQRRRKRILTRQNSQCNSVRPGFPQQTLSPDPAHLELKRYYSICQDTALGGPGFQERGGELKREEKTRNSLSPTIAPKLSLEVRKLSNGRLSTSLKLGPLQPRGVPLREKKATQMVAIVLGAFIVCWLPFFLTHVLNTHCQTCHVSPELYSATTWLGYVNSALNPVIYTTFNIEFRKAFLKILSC

Usually EC50 stands for the concentration giving half of the maximal effect. For the molecule `O=C1CCc2ccc(OCCCCN3CCCN(c4cccc(Cl)c4Cl)CC3)nc2N1`, the 50% effective concentration (EC50) on D(2) dopamine receptor [1] was 1.6 nM; on D(2) dopamine receptor [2] (hek-293t), “Not Active”.
Broadly, the Ki is a measure of affinity in units of concentration, obtained from inhibition or displacement. A low value points to a stronger hold on the target. What is called Emax is the size of the effect at its maximum, as opposed to the concentration needed. `CC(C)Oc1ccccc1N1CCN(CCCCOc2ccc3c(c2)NC(=O)CC3)CC1` returned a Ki at D(2) dopamine receptor [3] of 3.1 nM. Besides, the Emax on D(2) dopamine receptor [4] came to 63%. The figures for the EC50 at D(2) dopamine receptor [1] and at D(2) dopamine receptor [2] (read-out: EC50) were 2 nM and 25 nM, respectively.
On to `O=C1CCc2ccc(Oc3cccc(CN4CCN(c5cccc(Cl)c5Cl)CC4)c3)cc2N1`, for which the 50% effective concentration (EC50) on D(2) dopamine receptor [5] is 316 nM; at D(2) dopamine receptor [2] (hek-293t), “Not Active”.
As for `O=c1[nH]c2ccc(OCCCCN3CCC(c4cccc(Cl)c4Cl)CC3)cc2[nH]1`, on D(2) dopamine receptor [2] (hek-293t), the EC50 result is given as “Not Active”.
Molecule `CCOc1cccc(N2CCN(CCCCOc3ccc4c(c3)NC(=O)CC4)CC2)c1` came in with an inhibition constant (Ki) at D(2) dopamine receptor [3] of 21 nM. Besides, on D(2) dopamine receptor [4], the Emax stood at 40%. Besides, the EC50 on D(2) dopamine receptor [1] was determined as 10 nM; at D(2) dopamine receptor [2] (read-out: EC50), 158 nM.
For the molecule `Clc1cccc(N2CCN(CCCCOc3ccc4cn[nH]c4c3)CC2)c1Cl`, the EC50 was 100 nM at D(2) dopamine receptor [5] and “Not Active” on D(2) dopamine receptor [2] (hek-293t).
`CCOc1ccc(N2CCN(CCCCOc3ccc4c(c3)NC(=O)CC4)CC2)cc1` gave a Ki at D(2) dopamine receptor [3] of 53 nM. The molecule further returned an Emax at D(2) dopamine receptor [4] of 82%. In addition, the figures for the EC50 at D(2) dopamine receptor [1] and on D(2) dopamine receptor [2] (read-out: EC50) were 50 nM and 251 nM, respectively.
As for `O=C1NCCc2ccc(OCCCN3CCN(c4cccc(Cl)c4Cl)CC3)cc21`, the EC50 on D(2) dopamine receptor [1] is 20 nM; on D(2) dopamine receptor [2] (hek-293t), “Not Active”.
Consider `Clc1cccc(N2CCN(CCCCOc3ccc4scnc4c3)CC2)c1Cl`, for which the EC50 at D(2) dopamine receptor [5] was 63 nM; on D(2) dopamine receptor [2] (hek-293t), “Not Active”.
As to `Clc1cccc(N2CCCN(CCCOc3ccc4scnc4c3)CC2)c1Cl`, the Emax at D(2) dopamine receptor [4] was found to be 71%.
For the molecule `Clc1cccc(C2CCN(CCCOc3ccc4scnc4c3)CC2)c1Cl`, the EC50 on D(2) dopamine receptor [1] was 50 nM; at D(2) dopamine receptor [2] (hek-293t), “Not Active”.
`O=C1CCc2ccc(OCCCCN3CCN(c4cccc(Cl)c4Cl)CC3)nc2N1`: the EC50 entry at D(2) dopamine receptor [2] (hek-293t) is “Not Active”.
The molecule `O=C1CCc2ccc(OC[C@H]3CC[C@H](CN4CCN(c5cccc(Cl)c5Cl)CC4)CC3)cc2N1` yielded an Emax on D(2) dopamine receptor [6] of 45%. Further, the 50% effective concentration (EC50) at D(2) dopamine receptor [5] is 1580 nM; at D(2) dopamine receptor [2] (hek-293t), “Not Active”. This molecule also had a Ki at D(2) dopamine receptor [3] of 145 nM.
As to `Clc1cccc(N2CCN(CCCOc3ccc4scnc4c3)CC2)c1Cl`, the EC50 at D(2) dopamine receptor [1] was 126 nM; on D(2) dopamine receptor [2] (hek-293t), “Not Active”.
`O=C1NCCc2ccc(OCCCCN3CCN(c4cccc(Cl)c4Cl)CC3)cc21`: the concentration for a half-maximal effect (EC50) at D(2) dopamine receptor [5] is 4 nM; at D(2) dopamine receptor [2] (hek-293t), “Not Active”.
Take `O=C1CCc2ccc(OCCCCN3CCCN(c4cccc(Cl)c4Cl)CC3)cc2N1`: the inhibition entry in the assay on Mus musculus [7] was “Active”. The result in assay [8] and in assay [10] was inactive. For the same molecule, the inhibition entry in the assay with Mus musculus [9] is “inactive”.
Take `O=C1NCCc2ccc(OCCCN3CCCN(c4cccc(Cl)c4Cl)CC3)cc21`: the half-maximal effective concentration (EC50) on D(2) dopamine receptor [1] was 6.3 nM; at D(2) dopamine receptor [2] (hek-293t), “Not Active”.
Regarding `Clc1cccc(N2CCCN(CCCCOc3ccc4scnc4c3)CC2)c1Cl`, on D(2) dopamine receptor [2] (hek-293t), the EC50 result is “Not Active”.
`Clc1cccc(C2CCN(CCCCOc3ccc4scnc4c3)CC2)c1Cl`: the inhibition result with Mus musculus [7] is “Active”. Further, the outcome in [8] and in assay [10] was inactive. On D(2) dopamine receptor [4], this molecule displayed a maximum response (Emax) of 78%. Besides, the result in assay [11] and in [12] was Active. Besides, the inhibition entry in the assay on Mus musculus [9] is “inactive”. The EC50 was 79 nM at D(2) dopamine receptor [1] and “Not Active” on D(2) dopamine receptor [2] (hek-293t).
`O=c1[nH]c2ccc(OCCCCN3CCN(c4cccc(Cl)c4Cl)CC3)cc2[nH]1`: at D(2) dopamine receptor [2] (hek-293t), the concentration giving a half-maximal response (EC50) entry is recorded as “Not Active”.
As to `Clc1cccc(N2CCN(CCCOc3ccc4cn[nH]c4c3)CC2)c1Cl`, the EC50 at D(2) dopamine receptor [1] was 200 nM; at D(2) dopamine receptor [2] (hek-293t) it was “Not Active”.
`O=C1CCc2ccc(Oc3ccc(CN4CCN(c5cccc(Cl)c5Cl)CC4)cc3)cc2N1`: the EC50 on D(2) dopamine receptor [5] was 501 nM; at D(2) dopamine receptor [2] (hek-293t), “Not Active”.

These data come from ChEMBL document CHEMBL2163335, “Structure-functional selectivity relationship studies of β-arrestin-biased dopamine D₂ receptor agonists” (J Med Chem, 2012).
